Source: the NIST ThermoML archive (doi:10.1016/j.jct.2013.10.023)
Numbers after ± are expanded uncertainties.

Test: xn = mol fraction of the nth substance listed
Details: 101 kPa, Liquid; for viscosity: Capillary tube (Ostwald / Ubbelohde) method; for mass density: Vibrating tube method

CC(=O)[O-].CCn1cc[n+](C)c1 [1-ethyl-3-methylimidazolium acetate] + CCOS(=O)(=O)[O-].CCn1cc[n+](C)c1
Details | mass density [kg/m3] | viscosity [mPa·s]
298.15 K, x1 = 0.0993 | 1226.62 ± 10 | 97.2 ± 2.2
298.15 K, x1 = 0.2011 | 1214.23 ± 10 | 99.93 ± 2.3
298.15 K, x1 = 0.2973 | 1202.11 ± 10 | 101.8 ± 2.4
298.15 K, x1 = 0.3917 | 1189.85 ± 10 | 105.2 ± 2.5
298.15 K, x1 = 0.5069 | 1174.26 ± 10 | 110.1 ± 2.6
298.15 K, x1 = 0.5988 | 1161.36 ± 10 | 114.1 ± 2.8
298.15 K, x1 = 0.705 | 1145.81 ± 10 | 120.1 ± 3
298.15 K, x1 = 0.8012 | 1131.13 ± 10 | 125.8 ± 3.2
298.15 K, x1 = 0.9007 | 1115.5 ± 10 | 131 ± 3.3
298.15 K, x1 = 1 | 1099.04 ± 10 | 138.4 ± 3.6
308.15 K, x1 = 0.0993 | 1219.9 ± 10 | 61.11 ± 1.3
308.15 K, x1 = 0.2011 | 1207.5 ± 10 | 61.27 ± 1.3
308.15 K, x1 = 0.2973 | 1195.48 ± 10 | 62.35 ± 1.3
308.15 K, x1 = 0.3917 | 1183.26 ± 10 | 63.63 ± 1.3
308.15 K, x1 = 0.5069 | 1167.73 ± 10 | 65.47 ± 1.4
308.15 K, x1 = 0.5988 | 1154.86 ± 10 | 66.99 ± 1.4
308.15 K, x1 = 0.705 | 1139.5 ± 10 | 69.07 ± 1.5
308.15 K, x1 = 0.8012 | 1124.87 ± 10 | 71.01 ± 1.5
308.15 K, x1 = 0.9007 | 1109.3 ± 10 | 73.4 ± 1.6
308.15 K, x1 = 1 | 1092.95 ± 10 | 76.1 ± 1.6
318.15 K, x1 = 0.0993 | 1213.21 ± 10 | 40.47 ± 0.85
318.15 K, x1 = 0.2011 | 1200.9 ± 10 | 41.05 ± 0.86
318.15 K, x1 = 0.2973 | 1188.92 ± 10 | 41.59 ± 0.87
318.15 K, x1 = 0.3917 | 1176.76 ± 10 | 42.12 ± 0.88
318.15 K, x1 = 0.5069 | 1161.31 ± 10 | 41.77 ± 0.88
318.15 K, x1 = 0.5988 | 1148.5 ± 10 | 43.3 ± 0.91
318.15 K, x1 = 0.705 | 1133.15 ± 10 | 43.93 ± 0.92
318.15 K, x1 = 0.8012 | 1118.65 ± 10 | 44.55 ± 0.93
318.15 K, x1 = 0.9007 | 1103.14 ± 10 | 45.24 ± 0.95
318.15 K, x1 = 1 | 1086.88 ± 10 | 45.9 ± 0.96
328.15 K, x1 = 0.0993 | 1206.59 ± 10 | 29.06 ± 0.61
328.15 K, x1 = 0.2011 | 1194.33 ± 10 | 29.19 ± 0.61
328.15 K, x1 = 0.2973 | 1182.38 ± 10 | 29.32 ± 0.61
328.15 K, x1 = 0.3917 | 1170.26 ± 10 | 29.44 ± 0.62
328.15 K, x1 = 0.5069 | 1154.88 ± 10 | 29.58 ± 0.62
328.15 K, x1 = 0.5988 | 1142.13 ± 10 | 29.69 ± 0.62
328.15 K, x1 = 0.705 | 1126.87 ± 10 | 29.81 ± 0.63
328.15 K, x1 = 0.8012 | 1112.55 ± 10 | 29.91 ± 0.63
328.15 K, x1 = 0.9007 | 1097.01 ± 10 | 30 ± 0.63
328.15 K, x1 = 1 | 1080.86 ± 10 | 30.1 ± 0.63
338.15 K, x1 = 0.0993 | 1200.01 ± 10 | 20.7 ± 0.43
338.15 K, x1 = 0.2011 | 1187.79 ± 10 | 20.78 ± 0.44
338.15 K, x1 = 0.2973 | 1175.91 ± 10 | 20.84 ± 0.44
338.15 K, x1 = 0.3917 | 1163.85 ± 10 | 20.89 ± 0.44
338.15 K, x1 = 0.5069 | 1148.54 ± 10 | 20.92 ± 0.44
338.15 K, x1 = 0.5988 | 1135.86 ± 10 | 20.92 ± 0.44
338.15 K, x1 = 0.705 | 1120.68 ± 10 | 20.89 ± 0.44
338.15 K, x1 = 0.8012 | 1106.35 ± 10 | 20.86 ± 0.44
338.15 K, x1 = 0.9007 | 1090.93 ± 10 | 20.84 ± 0.44
338.15 K, x1 = 1 | 1074.86 ± 10 | 20.8 ± 0.44
348.15 K, x1 = 0.0993 | 1196.34 ± 10 | 15.63 ± 0.33
348.15 K, x1 = 0.2011 | 1184.12 ± 10 | 15.58 ± 0.33
348.15 K, x1 = 0.2973 | 1172.27 ± 10 | 15.5 ± 0.33
348.15 K, x1 = 0.3917 | 1160.23 ± 10 | 15.39 ± 0.32
348.15 K, x1 = 0.5069 | 1144.94 ± 10 | 15.24 ± 0.32
348.15 K, x1 = 0.5988 | 1132.29 ± 10 | 15.1 ± 0.32
348.15 K, x1 = 0.705 | 1117.12 ± 10 | 14.91 ± 0.31
348.15 K, x1 = 0.8012 | 1102.78 ± 10 | 14.72 ± 0.31
348.15 K, x1 = 0.9007 | 1087.39 ± 10 | 14.51 ± 0.3
348.15 K, x1 = 1 | 1071.37 ± 10 | 14.28 ± 0.3
358.15 K, x1 = 0.0993 | 1187 ± 10 | 12.57 ± 0.26
358.15 K, x1 = 0.2011 | 1174.89 ± 10 | 12.8 ± 0.27
358.15 K, x1 = 0.2973 | 1163.13 ± 10 | 12.95 ± 0.27
358.15 K, x1 = 0.3917 | 1151.18 ± 10 | 12.93 ± 0.27
358.15 K, x1 = 0.5069 | 1136.03 ± 10 | 12.9 ± 0.27
358.15 K, x1 = 0.5988 | 1123.47 ± 10 | 12.81 ± 0.27
358.15 K, x1 = 0.705 | 1108.41 ± 10 | 12.7 ± 0.27
358.15 K, x1 = 0.8012 | 1094.15 ± 10 | 12.47 ± 0.26
358.15 K, x1 = 0.9007 | 1078.94 ± 10 | 12.17 ± 0.26
358.15 K, x1 = 1 | 1063.03 ± 10 | 11.53 ± 0.24
